These are literature values, as cited in patent US20250231185A1, “Coronavirus T Cell Epitopes, Megapools and Uses Thereof” (La Jolla Institute for Immunology, priority 2021, published 2025).

In one series the test system is CD8+ T cells. The following applies: CD8R (D) megapool epitopes; dominant = recognized by 3 or more donors/different studies; cited from earlier work.
On to 1746 (SYATHSDKF) [compound 1746], for which the Dominant result is listed as “Yes (more dominant epitopes are defined by being recognized by 3 or more donors/different studies)”.
As for 1735 (VYRGTTTYKL) [compound 1735], the Dominant result was “Yes (more dominant epitopes are defined by being recognized by 3 or more donors/different studies)”.
With 1682 (NTASWFTAL) [compound 1682], the Dominant result is “Yes (more dominant epitopes are defined by being recognized by 3 or more donors/different studies)”.
As for 1743 (AIMTRCLAV) [compound 1743], the Dominant entry is “Yes (more dominant epitopes are defined by being recognized by 3 or more donors/different studies)”.
For the substance 1685 (YYRRATRRIR) [compound 1685], the Dominant result is given as “Yes (more dominant epitopes are defined by being recognized by 3 or more donors/different studies)”.
With 1712 (TVLSFCAFAV) [compound 1712], the Dominant result is listed as “Yes (more dominant epitopes are defined by being recognized by 3 or more donors/different studies)”.
For the substance 1675 (SMWSFNPET) [compound 1675], the Dominant entry is listed as “Yes (more dominant epitopes are defined by being recognized by 3 or more donors/different studies)”.

The same series, now with this note: CD8RE megapool peptides (non-spike SARS-CoV-2 antigens); dominant epitope Yes/No; cited from earlier work.
Turning to 2954 (ISDYDYYRY) [compound 2954], the Dominant entry is listed as “Yes (more dominant epitopes are defined by being recognized by 3 or more donors/different studies)”.
For the substance 2980 (ALLADKFPV) [compound 2980], the Dominant entry was “Yes (more dominant epitopes are defined by being recognized by 3 or more donors/different studies)”.
For the substance 2925 (GTGPEAGLPY) [compound 2925], the Dominant result is reported as “Yes (more dominant epitopes are defined by being recognized by 3 or more donors/different studies)”.
As to 2999 (TTDPSFLGRY) [compound 2999], the Dominant entry is listed as “Yes (more dominant epitopes are defined by being recognized by 3 or more donors/different studies)”.
Regarding 2947 (TVLSFCAFAV) [compound 2947], the Dominant result is on record as “Yes (more dominant epitopes are defined by being recognized by 3 or more donors/different studies)”.
For the substance 3026 (NTCDGTTFTY) [compound 3026], the Dominant result is listed as “Yes (more dominant epitopes are defined by being recognized by 3 or more donors/different studies)”.
For the substance 2927 (NPANNAAIVL) [compound 2927], the Dominant entry is given as “Yes (more dominant epitopes are defined by being recognized by 3 or more donors/different studies)”.
Turning to 3039 (ALSKGVHFV) [compound 3039], the Dominant entry was “Yes (more dominant epitopes are defined by being recognized by 3 or more donors/different studies)”.
Consider 3043 (FTSDYYQLY) [compound 3043], for which the Dominant entry is listed as “Yes (more dominant epitopes are defined by being recognized by 3 or more donors/different studies)”.
As for 3027 (FTYASALWEI) [compound 3027], the Dominant result is given as “Yes (more dominant epitopes are defined by being recognized by 3 or more donors/different studies)”.
Consider 2909 (RLFARTRSMW) [compound 2909], for which the Dominant entry is “Yes (more dominant epitopes are defined by being recognized by 3 or more donors/different studies)”.
On to 3021 (MPASWVMRI) [compound 3021], for which the Dominant result is “Yes (more dominant epitopes are defined by being recognized by 3 or more donors/different studies)”.
As to 3042 (LLYDANYFL) [compound 3042], the Dominant result is “Yes (more dominant epitopes are defined by being recognized by 3 or more donors/different studies)”.
For 2928 (VLQLPQGTTL) [compound 2928], the Dominant entry is “Yes (more dominant epitopes are defined by being recognized by 3 or more donors/different studies)”.
With 2930 (LLLLDRLNQL) [compound 2930], the Dominant entry is “Yes (more dominant epitopes are defined by being recognized by 3 or more donors/different studies)”.
As to 3012 (TSEDMLNPNY) [compound 3012], the Dominant result is given as “Yes (more dominant epitopes are defined by being recognized by 3 or more donors/different studies)”.
3047 (RARSVSPKL) [compound 3047]: the Dominant result is listed as “Yes (more dominant epitopes are defined by being recognized by 3 or more donors/different studies)”.
Regarding 3044 (YYQLYSTQL) [compound 3044], the Dominant result is recorded as “Yes (more dominant epitopes are defined by being recognized by 3 or more donors/different studies)”.
As for 3045 (HLVDFQVTI) [compound 3045], the Dominant result is reported as “Yes (more dominant epitopes are defined by being recognized by 3 or more donors/different studies)”.

The same series, now with this note: SARS-CoV-2-derived CD8 epitopes; dominant = recognized by 3 or more donors/different studies; cited from earlier work.
For the substance 542 (MEVTPSGTWL) [compound 542], the Dominant result is reported as “Yes (more dominant epitopes are defined by being recognized by 3 or more donors/different studies)”.
As for 549 (AYKTFPPTEPK) [compound 549], the Dominant result is reported as “Yes (more dominant epitopes are defined by being recognized by 3 or more donors/different studies)”.
In the case of 509 (ATEGALNTPK) [compound 509], the Dominant entry is listed as “Yes (more dominant epitopes are defined by being recognized by 3 or more donors/different studies)”.

The same series, now with this note: SARS-CoV-2 Ag S; T cell type recognizing the epitope; cited from earlier work.
For the substance 1346 (QTNSPRRAR) [compound 1346], the Restriction entry is listed as “CD8”.
Consider 1450 (NASVVNIQK) [compound 1450], for which the Restriction result was “CD8”.
With 1369 (TQLNRALTGI) [compound 1369], the Restriction entry is on record as “CD8”.
For the substance 1325 (LVKNKCVNF) [compound 1325], the Restriction result is “CD8”.
With 1417 (AEIRASANL) [compound 1417], the Restriction result is given as “CD8”.
As to 1307 (KSNLKPFER) [compound 1307], the Restriction result is reported as “CD8”.
As to 1372 (EVFAQVKQI) [compound 1372], the Restriction result is given as “CD8”.
1388 (TDEMIAQY) [compound 1388]: the Restriction entry is “CD8”.
For the substance 1454 (NESLIDLQEL) [compound 1454], the Restriction result is on record as “CD8”.
In the case of 1333 (TSNQVAVLY) [compound 1333], the Restriction entry was “CD8”.
For the substance 1308 (KPFERDISTEI) [compound 1308], the Restriction entry is “CD8”.
In the case of 1404 (SVLNDILSRL) [compound 1404], the Restriction result was “CD8”.
Turning to 1337 (QLTPTWRVY) [compound 1337], the Restriction entry was “CD8”.
With 1320 (QPYRVVVLSF) [compound 1320], the Restriction entry is given as “CD8”.
Take 1329 (DAVRDPQTL) [compound 1329]: the Restriction result was “CD8”.
As to 1468 (VLKGVKLHY) [compound 1468], the Restriction entry is given as “CD8”.
Take 1381 (LADAGFIKQY) [compound 1381]: the Restriction entry is listed as “CD8”.

Staying with this series, now noted: T cell subset (CD4 or CD8) recognizing the SARS-CoV-2-derived epitope; cited from earlier work.
634 (AHAEETRKL) [compound 634]: the Restriction entry is “CD8”.
For the substance 657 (LRVEAFEYY) [compound 657], the Restriction entry is reported as “CD8”.
In the case of 567 (GFMGRIRSV) [compound 567], the Restriction result is recorded as “CD8”.
Turning to 604 (IEVNSFSGY) [compound 604], the Restriction result is reported as “CD8”.
As for 531 (HWPQIAQF) [compound 531], the Restriction result is “CD8”.
On to 622 (FLTENLLLYI) [compound 622], for which the Restriction entry was “CD8”.
Turning to 641 (TISLAGSYK) [compound 641], the Restriction entry is “CD8”.
On to 598 (LEFGATSAAL) [compound 598], for which the Restriction entry is recorded as “CD8”.
For 542 (MEVTPSGTWL) [compound 542], the Restriction result is “CD8”.
In the case of 546 (KLDDKDPNF) [compound 546], the Restriction result is given as “CD8”.
For the substance 516 (SQASSRSSSR) [compound 516], the Restriction result is “CD8”.
In the case of 613 (GADPIHSLR) [compound 613], the Restriction result was “CD8”.
As to 549 (AYKTFPPTEPK) [compound 549], the Restriction entry is “CD8”.
In the case of 642 (ISLAGSYKDW) [compound 642], the Restriction result is “CD8”.
On to 651 (RTIKVFTTV) [compound 651], for which the Restriction entry is “CD8”.
As for 617 (LYDKLVSSF) [compound 617], the Restriction result was “CD8”.
608 (EAKKVKPTV) [compound 608]: the Restriction entry is “CD8”.
677 (VMYMGTLSY) [compound 677]: the Restriction entry is recorded as “CD8”.
Regarding 633 (MLAHAEETR) [compound 633], the Restriction result is listed as “CD8”.
As for 524 (RTATKAYNV) [compound 524], the Restriction result was “CD8”.
On to 655 (MSMTYGQQF) [compound 655], for which the Restriction entry was “CD8”.
509 (ATEGALNTPK) [compound 509]: the Restriction entry was “CD8”.
Turning to 515 (AEGSRGGSQA) [compound 515], the Restriction entry is “CD8”.
Turning to 600 (LEMELTPVV) [compound 600], the Restriction entry is “CD8”.

Still in this series, the particulars now being: T cell type (CD4 or CD8) recognizing the SARS-CoV-2 epitope; cited from earlier work.
For 1098 (WRNTNPIQL) [compound 1098], the Restriction result is listed as “CD8”.
On to 935 (VENPDILRVY) [compound 935], for which the Restriction entry is listed as “CD8”.
With 948 (TSFGPLVRK) [compound 948], the Restriction entry is reported as “CD8”.
In the case of 1036 (YYPSARIVY) [compound 1036], the Restriction result is “CD8”.
On to 1037 (IPARARVEC) [compound 1037], for which the Restriction entry was “CD8”.
1078 (KPRSQMEIDF) [compound 1078]: the Restriction result is “CD8”.
As to 973 (IPTITQMNL) [compound 973], the Restriction entry is “CD8”.
As to 983 (NMLRIMASL) [compound 983], the Restriction result is listed as “CD8”.
With 949 (SFGPLVRKI) [compound 949], the Restriction entry is recorded as “CD8”.
Regarding 982 (MPNMLRIMASL) [compound 982], the Restriction entry is “CD8”.
In the case of 986 (IMASLVLAR) [compound 986], the Restriction result was “CD8”.
1097 (FWRNTNPIQL) [compound 1097]: the Restriction entry is listed as “CD8”.
For 955 (QTVKPGNFNK) [compound 955], the Restriction entry was “CD8”.
As for 1063 (SLYVNKHAF) [compound 1063], the Restriction result was “CD8”.
As to 928 (YFVVKRHTF) [compound 928], the Restriction entry is reported as “CD8”.
For 1075 (GRVDGQVDL) [compound 1075], the Restriction result is listed as “CD8”.
